The text below walks through data of patent publication EP2861555B1, “PROCESS FOR DEPIGMENTING KERATIN MATERIALS USING NOVEL RESORCINOL-BASED COMPOUNDS” (L'Oréal, priority 2012, dated 2013).

One may read the pIC50 as the IC50 on a negative log10 scale, so that one unit is a factor of ten.

For data set [1], the system named is coculture of keratinocytes and melanocytes. The data set can be described thus: Cytotoxicity on keratinocyte/melanocyte coculture, estimated by incorporation of leucine. It is filed as cell-based.
Data set [2] shares this test system. The experiment in a line: Inhibitory activity on melanin synthesis (constitutive melanogenesis), ratio of thiouracil to leucine incorporation. It is filed as cell-based. The note with it: concentration for which 50% of the synthesis of the melanin is inhibited; thiouracil/leucine incorporation ratio relative to 100% for the control. The procedure:
This test is carried out on a coculture of keratinocytes and melanocytes.
For the test compound, the following were determined: • the cytotoxicity, by estimating the incorporation of leucine, • the inhibitory activity on melanin synthesis, by estimating the ratio of the incorporation of thiouracil to the incorporation of leucine, relative to 100% for the control (the control corresponds to the test performed without test compound). The IC50 (concentration for which 50% of the synthesis of the melanin is inhibited) values were determined.
The test was also carried out with arbutin and kojic acid, which are known depigmenting compounds.

In data set [3] the test system is pigmented reconstructed epidermis. The experiment in a line: Test on pigmented reconstructed epidermis samples, melanin quantified by image analysis. The class given is cell-based, human. The protocol: Compositions comprising 300 µM of compound 1 in DMSO were applied to samples of pigmented reconstructed epidermis (cf. EP 1 878 790). The control is DMSO. The melanin was quantified by image analysis on histological slices after staining with Fontana Masson dye. Each sample of coloured epidermis is photographed over its entire length using a camera connected to a microscope. The melanin is thresholded and the number of melanin pixels is measured in each field using automated image analysis software. A non-parametric statistical test is performed in order to determine the significance of the measurements (Mann-Whitney test).
The pigmented reconstructed epidermis standard study model was published by: Regnier M, Duval C, Galey JB, Philippe M, Lagrange A, Tuloup R, Schmidt R, Cellular and Molecular Biology, 1999, 45, 7, 969-980: "Keratinocyte-Melanocyte co-cultures and pigmented reconstructed human epidermis: models to study modulation of melanogenesis".

pIC50: −log10 of the molar value.

Consider `CCOC(=O)C(Cc1ccccc1)NC(=O)C(CCO)Cc1ccc(O)cc1O` (stereo not shown), for which, in data set [1], the Cytotoxicity on coculture entry was “Non-cytotoxic”. For the same compound, the pIC50 in data set [2] is 6.82.
`CCOC(=O)C(CC(C)C)NC(=O)C(CCO)Cc1ccc(O)cc1O` (stereo not shown): the Cytotoxicity on coculture entry in data set [1] is “Non-cytotoxic”. For the same compound, the pIC50 in data set [2] is 4.00.
The matching figures for `CCCCC(CC)CNC(=O)C(CCO)Cc1ccc(O)cc1O` (stereo not shown): 50 µM and 4.60.
As to `OC[C@H]1O[C@@H](Oc2ccc(O)cc2)[C@H](O)[C@@H](O)[C@@H]1O` [Arbutin, reference compound], the Cytotoxicity on coculture result in data set [1] was “Non-cytotoxic”. Also, the pIC50 in data set [2] is below 3.30.
As to `CCOC(=O)[C@H](Cc1ccccc1)NC(=O)C(CCO)Cc1ccc(O)cc1O` (stereo partly shown) [Compound 1, ethyl N-[2-(2,4-dihydroxybenzyl)-4-hydroxybutanoyl]phenylalaninate], the depigmenting activity result in data set [3] (300 µM, pValue < 0.05 (Ttest 0.0006 in table), Mann-Whitney test) was “Significant depigmenting activity”. Also, in data set [3] (topical application 300 uM in DMSO, melanin area normalized to DMSO 1/1000 control = 100), the “Percentage (normalized)” value was 71.7. The same compound displayed an Average area in data set [3] (topical application 300 uM in DMSO, melanin pixels by image analysis after Fontana Masson staining, DMSO 1/1000 control 368.5) of 264.2.
For `O=c1cc(CO)occ1O` [Kojic acid, reference compound], the Cytotoxicity on coculture in data set [1] is 100 µM. In addition, the pIC50 in data set [2] is below 3.30.
